Results taken from patent publication US6509001B1, “Calcitonin receptor binding reagents” (Diatide, Inc., priority 1997, dated 2003).
Where two headings read alike, the source gives them in different places. Starred links: 1 amine or outer side, 2 acyl side, 3 side chain; linkers in the order of their positions; H or OH if unused. Positions of bridges follow the written chain, without caps; N, C: chain ends. Non-standard residues stand in square brackets, D forms with d. Residues, ends and D or L forms follow the SMILES beside them. *: point of attachment. X2 = NCCCC[C@H](NC(=O)[C@H](CS)NC(=O)[C@H](CCCCN)NC(=O)[C@@H](N)CNC(=O)C*)C(N)=O; X1 = NCCCC[C@H](NC(=O)[C@H](CS)NC(=O)CNC(=O)CNC(=O)C*)C(N)=O; hhCys(CH2CO) = O=C([C@H](CCCSCC(=O)[*:3])N[*:1])[*:2]; εLys = N[C@@H](CCCCN[*:1])C(=O)[*:2]; X3 = CC(C)(S)CNCCN(CCCCC*)CC(C)(C)S

Legend:
CT receptor [1] = target: T1, CT receptor (Homo sapiens, UniProt P30988); assay: Displacement of 125I-CT from CT receptor in T-47D cell membranes; format: binding
T1 construct: Assays using microsomal membrane fractions of rat brain and T-47D cells; host or cells: T-47D
T1 sequence (P30988 25-474): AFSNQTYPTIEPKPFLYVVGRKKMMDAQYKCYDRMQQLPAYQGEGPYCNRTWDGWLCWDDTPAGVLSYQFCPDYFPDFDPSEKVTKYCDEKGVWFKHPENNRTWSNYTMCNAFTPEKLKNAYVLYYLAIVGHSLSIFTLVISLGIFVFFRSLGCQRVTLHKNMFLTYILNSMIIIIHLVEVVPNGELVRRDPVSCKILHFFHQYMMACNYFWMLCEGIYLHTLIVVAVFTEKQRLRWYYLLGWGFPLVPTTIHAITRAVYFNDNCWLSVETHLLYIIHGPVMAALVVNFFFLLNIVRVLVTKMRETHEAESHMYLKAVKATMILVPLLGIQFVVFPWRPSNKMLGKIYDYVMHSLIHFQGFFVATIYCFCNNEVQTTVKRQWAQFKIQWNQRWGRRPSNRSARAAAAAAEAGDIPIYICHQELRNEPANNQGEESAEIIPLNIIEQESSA
Procedure: (§1) Peptide reagents within the scope of the invention, or ReO complexed embodiments thereof, were tested using in vitro assays that measure their ability to inhibit the specific binding of ^125I-CT to the CT receptor, using membranes from rat brain or from a breast tumor cell line, and on whole cells from breast tumor cell lines, as described in detail below.
(§2) Assays using microsomal membrane fractions of rat brain and T-47D cells (obtained from the American Type Culture collection, Rockville, Md., ATCC Accession No. HTB-133) were used to identify analogs with high affinity for the CT receptor according to the method of Fisher et al. (1977, British J. Cancer 35: 777-784). Briefly, tissue was minced and homogenized. The membranes were washed several times, assayed for protein content and used in the binding assay. Membrane protein was incubated with 0.1 μCi of ^125I-salmon CT (Amersham, Cleveland, Ohio) in he presence or absence of varying concentrations of reagents to be tested. Both uncomplexed and ReO complexed reagents were tested. One hundred percent specific binding of ^125I-CT to the CT receptor was defined as the difference between total ^125I-CT binding and nonspecific binding of ^125I-CT measured in the presence of a receptor-saturating concentration (1 μM) of excess unlabeled salmon CT (Sigma, St. Louis, Mo.).

CT receptor [2] = assay: Displacement of 125I-CT from CT receptor in rat brain membranes; format: binding; details: displacement of 125I-CT (Table III)
Procedure: as §1, §2

[3] = Biodistribution of 99mTc-CT peptide, T-47D tumor in nude mouse; format: in vivo; details: 0.025 mCi, total radioactivity, 99mTc-labeled peptide; for tissue uptake dose at […]: 90 minutes
Text: (§3) Breast cancer cell lines were screened for receptor expression and the best cell lines chosen for xenograft implantation in immune deficient mice. These tumor models were used to evaluate the tumor targeting potential in vivo of the high affinity peptides identified in the in vitro assays above.
(§4) CT receptor expressing breast cancer cells (T47D and MCF-7) were implanted into immune deficient mice or Sprague-Dawley rats and allowed to grow tumors. For testing new ^99mTc-CT peptides, tumor-bearing mice or rats were injected with approximately 0.025 mCi at approximately 6 mCi/10 nmol peptide. The animals were cervically dislocated and imaged statically for 5 minutes using a gamma camera. The biodistribution of the ^99mTc-CT peptide was then determined by counting blood, tumor, target organs and muscle in a gamma counter along with standard aliquots of the injected dose. The time points for biodistribution were chosen to represent early, middle and late phases of ^99mTc-CT analog clearance. […] To assess the tumor imaging potential of selected analogs, the ratio of radioactivity in blood and various tissues were compared to that in tumor.

T-47D tumor = assay: as above; format: in vivo; details: 99mTc-labeled peptide, 90 minutes
Text: as §3, §4

[4] = Biodistribution of 99mTc-CT peptide in rat; format: in vivo; details: 99mTc-labeled peptide; for tissue uptake dose at […] / tissue uptake at […]: 0.025 mCi; for tissue uptake dose at […]: 90 minutes; for tissue uptake at […]: 90 minutes post-injection
Procedure: as §4

[5] = T-47D membranes, displacement of 125I-CT (Table III)
[6] = T-47D membranes, displacement of 125I-CT (Table III), read-out: T-47D IC50

SMILES: CC(C)C[C@H](NC(=O)[C@H](CCCCN)NC(=O)CNC(=O)[C@H](CC(C)C)NC(=O)[C@@H](NC(=O)[C@@H]1CCCSCC(=O)N[C@@H](CO)C(=O)N[C@@H](CC(N)=O)C(=O)N[C@@H](CC(C)C)C(=O)N[C@@H](CO)C(=O)N[C@@H]([C@@H](C)O)C(=O)N1)C(C)C)C(=O)N[C@@H](CO)C(=O)N[C@@H](CSCCCCCN(CCNCC(C)(C)S)CC(C)(C)S)C(=O)N[C@@H](CCC(=O)O)C(=O)N[C@@H](CC(C)C)C(=O)N[C@@H](Cc1c[nH]cn1)C(=O)N[C@@H](CCCCN)C(=O)N[C@@H](CC(C)C)C(=O)N[C@@H](CCC(N)=O)C(=O)N[C@H](C(=O)N[C@@H](Cc1ccc(O)cc1)C(=O)N1CCC[C@H]1C(=O)N[C@@H](CCCNC(=N)N)C(=O)N[C@H](C(=O)N[C@@H](CC(N)=O)C(=O)N[C@H](C(=O)NCC(=O)N[C@@H](CO)C(=O)NCC(=O)N[C@H](C(=O)N1CCC[C@H]1C(N)=O)[C@@H](C)O)[C@@H](C)O)[C@@H](C)O)[C@@H](C)O [Peptide 1] (SNLST[hhCys(CH2CO)]VLGKLSC(X3)ELHKLQTYPRTNTGSGTP-NH2; lactam N-6)
- Ki (CT receptor [1]; [5]): 0.41 nM
- IC50 (CT receptor [1]; [6]): 0.53 nM
- IC50 (CT receptor [2]): 2.6 nM

SMILES: CC(C)C[C@H](NC(=O)[C@H](CCCCN)NC(=O)CNC(=O)[C@H](CC(C)C)NC(=O)[C@@H](NC(=O)[C@@H]1CCCSCC(=O)N[C@@H](CO)C(=O)N[C@@H](CC(N)=O)C(=O)N[C@@H](CC(C)C)C(=O)N[C@@H](CO)C(=O)N[C@@H]([C@@H](C)O)C(=O)N1)C(C)C)C(=O)N[C@@H](CO)C(=O)N[C@@H](CCC(N)=O)C(=O)N[C@@H](CCC(=O)O)C(=O)N[C@@H](CC(C)C)C(=O)N[C@@H](Cc1c[nH]cn1)C(=O)N[C@@H](CCCCN)C(=O)N[C@@H](CC(C)C)C(=O)N[C@@H](CCC(N)=O)C(=O)N[C@H](C(=O)N[C@@H](Cc1ccc(O)cc1)C(=O)N1CCC[C@H]1C(=O)N[C@@H](CCCNC(=N)N)C(=O)N[C@H](C(=O)N[C@@H](CC(N)=O)C(=O)N[C@H](C(=O)NCC(=O)N[C@@H](CO)C(=O)NCC(=O)N[C@H](C(=O)N1CCC[C@H]1C(=O)NCCCC[C@H](N)C(=O)NCC(=O)N[C@@H](CS)C(N)=O)[C@@H](C)O)[C@@H](C)O)[C@@H](C)O)[C@@H](C)O [Peptide 2] (SNLST[hhCys(CH2CO)]VLGKLSQELHKLQTYPRTNTGSGTP[εLys]GC-NH2; lactam N-6)
- Ki (CT receptor [1]; [5]): 12 nM
- IC50 (CT receptor [1]; [6]): 16 nM
- IC50 (CT receptor [2]): 18 nM
- tissue uptake at […] ([3]; 90 minutes post-injection): 1.6 %ID/g
- tissue uptake dose at […] ([3]; GI tract, read-out: GI tract (% ID)): 5.4 %ID
- tissue uptake dose at […] ([3]; kidneys, read-out: Kidneys (% ID)): 18 %ID
- tissue uptake dose at […] ([3]; liver, read-out: Liver (% ID)): 5.5 %ID
- tissue uptake dose at […] ([3]; lung, read-out: Lung (% ID)): 0.24 %ID
- Tum:Bld (T-47D tumor): 3.3
- Tum:Con (T-47D tumor): 10

SMILES: CC(C)C[C@H](NC(=O)[C@H](CCCCN)NC(=O)CNC(=O)[C@H](CC(C)C)NC(=O)[C@@H](NC(=O)[C@@H]1CCCSCC(=O)N[C@@H](CO)C(=O)N[C@@H](CC(N)=O)C(=O)N[C@@H](CC(C)C)C(=O)N[C@@H](CO)C(=O)N[C@@H]([C@@H](C)O)C(=O)N1)C(C)C)C(=O)N[C@@H](CO)C(=O)N[C@@H](CSCC(=O)NCC(=O)NCC(=O)N[C@@H](CS)C(=O)N[C@@H](CCCCN)C(N)=O)C(=O)N[C@@H](CCC(=O)O)C(=O)N[C@@H](CC(C)C)C(=O)N[C@@H](Cc1c[nH]cn1)C(=O)N[C@@H](CCCCN)C(=O)N[C@@H](CC(C)C)C(=O)N[C@@H](CCC(N)=O)C(=O)N[C@H](C(=O)N[C@@H](Cc1ccc(O)cc1)C(=O)N1CCC[C@H]1C(=O)N[C@@H](CCCNC(=N)N)C(=O)N[C@H](C(=O)N[C@@H](CC(N)=O)C(=O)N[C@H](C(=O)NCC(=O)N[C@@H](CO)C(=O)NCC(=O)N[C@H](C(=O)N1CCC[C@H]1C(N)=O)[C@@H](C)O)[C@@H](C)O)[C@@H](C)O)[C@@H](C)O [Peptide 4] (SNLST[hhCys(CH2CO)]VLGKLSC(X1)ELHKLQTYPRTNTGSGTP-NH2; lactam N-6)
- IC50 (CT receptor [1]; T-47D cell membranes (Table IV), read-out: IC50 (nM)x): 2.6 nM
- PK (min) t½α [4]: 1.4 min
- PK (min) t½β [4]: 19 min
- tissue uptake dose at […] ([4]; Sprague-Dawley, GI tract, total radioactivity, read-out: GI tract (% ID)): 2 %ID
- tissue uptake at […] ([4]; Sprague-Dawley, blood, total radioactivity): 0.027 %ID/g
- tissue uptake dose at […] ([4]; Sprague-Dawley, kidneys, total radioactivity, read-out: Kidneys (% ID)): 35 %ID
- tissue uptake dose at […] ([4]; Sprague-Dawley, liver, total radioactivity, read-out: Liver (% ID)): 4 %ID
- tissue uptake dose at […] ([4]; Sprague-Dawley, lung, total radioactivity, read-out: Lung (% ID)): 0.53 %ID

SMILES: CC(C)C[C@H](NC(=O)[C@H](CCCCN)NC(=O)CNC(=O)[C@H](CC(C)C)NC(=O)[C@@H](NC(=O)[C@@H]1CCCSCC(=O)N[C@@H](CO)C(=O)N[C@@H](CC(N)=O)C(=O)N[C@@H](CC(C)C)C(=O)N[C@@H](CO)C(=O)N[C@@H]([C@@H](C)O)C(=O)N1)C(C)C)C(=O)N[C@@H](CO)C(=O)N[C@@H](CSCC(=O)NC[C@H](N)C(=O)N[C@@H](CCCCN)C(=O)N[C@@H](CS)C(=O)N[C@@H](CCCCN)C(N)=O)C(=O)N[C@@H](CCC(=O)O)C(=O)N[C@@H](CC(C)C)C(=O)N[C@@H](Cc1c[nH]cn1)C(=O)N[C@@H](CCCCN)C(=O)N[C@@H](CC(C)C)C(=O)N[C@@H](CCC(N)=O)C(=O)N[C@H](C(=O)N[C@@H](Cc1ccc(O)cc1)C(=O)N1CCC[C@H]1C(=O)N[C@@H](CCCNC(=N)N)C(=O)N[C@H](C(=O)N[C@@H](CC(N)=O)C(=O)N[C@H](C(=O)NCC(=O)N[C@@H](CO)C(=O)NCC(=O)N[C@H](C(=O)N1CCC[C@H]1C(N)=O)[C@@H](C)O)[C@@H](C)O)[C@@H](C)O)[C@@H](C)O [Peptide 5] (SNLST[hhCys(CH2CO)]VLGKLSC(X2)ELHKLQTYPRTNTGSGTP-NH2; lactam N-6)
- PK (min) t½α [4]: 1.6 min
- PK (min) t½β [4]: 17 min
- tissue uptake at […] ([4]; in vivo, read-out: Blood (% ID/g)): 0.048 %ID/g
- tissue uptake dose at […] ([4]; in vivo, read-out: GI tract (% ID)): 4.5 %ID
- tissue uptake dose at […] ([4]; in vivo, read-out: Kidneys (% ID)): 31 %ID
- tissue uptake dose at […] ([4]; in vivo, read-out: Liver (% ID)): 5.8 %ID
- tissue uptake dose at […] ([4]; in vivo, read-out: Lung (% ID)): 0.56 %ID
